# Experimental data: patent US20070010484A1, “Method for treating or inhibiting the effects of injuries or diseases that result in neuronal degeneration and method for promoting neurogenesis” (YEDA RESEARCH AND DEVELOPMENT CO. LTD., priority 2003, published 2007)
# “Also recorded” adds a separate entry of the source.
# Assays:
# [1] = tested on: PC12 cells; test: LPA-induced neurite retraction in differentiated PC12 cells; type: cell-based, rat
# Description: PC12 cell line: Rat pheochromocytoma (PC12) cells were cultured in DMEM containing 8% horse serum and either 8% FCS (culture medium) or 1% FCS (differentiation medium), and antibiotics. For assays of neurite outgrowth, the cells were plated (10^5 cell/well) on 13-mm glass coverslips, precoated with collagen (500 μg/ml) in 24-well plates. Treatment of PC12 cells with lysophosphatidic acid (LPA). PC12 cells were placed and were differentiated for 3 days in the presence of 100 ng/ml NGF, in collagen-precoated culture dishes (Corning). […] The cells were then fixed with 4% paraformaldehyde (PFA) and analyzed by Nomarski microscopy. The longest neurite of each cell was measured and the results are expressed as their mean±SEM.
# [2] = tested on: PC12 cells; test: Neurite outgrowth assay in NGF-stimulated PC12 cells; type: cell-based, rat; details: PC12 cells on collagen, NGF 10 ng/ml, sulfated CSPG-DSs added; mean±SD
# Description: PC12 cell line: Rat pheochromocytoma (PC12) cells were cultured in DMEM containing 8% horse serum and either 8% FCS (culture medium) or 1% FCS (differentiation medium), and antibiotics. For assays of neurite outgrowth, the cells were plated (10^5 cell/well) on 13-mm glass coverslips, precoated with collagen (500 μg/ml) in 24-well plates. Neurite outgrowth assays: PC12 cells were cultured for 24-72 h while being stimulated with 10 ng/ml NGF, with or without CSPG-DSs. Cell morphology was visualized under a phase-contrast microscope and neurite lengths were measured using ImagePro. At least 200 cells were measured for each condition.
# [3] = tested on: Organotypic hippocampal slice cultures (OHSC); test: Organotypic hippocampal slice cultures, propidium iodide staining; type: cell-based; details: rat OHSCs, 2.5 μg/ml or 25 μg/ml, 24 h
# Description: Organotypic hippocampal slice cultures (OHSC): OHSC were prepared as described (Franklin and Paxinos, 1997) from rats brains (Lewis aged 8-10 days) CSPG-DSs were added to the OHSCs for 24 h. Propidium iodide (5 μg/ml; Sigma) was then added to the medium for 30 min. The brain slices were examined under a Zeiss laser-scanning confocal microscope (LSM510) or a Zeiss Axioplane 100 fluorescence light microscope.
# [4] = tested on: experimental autoimmune encephalomyelitis in mice; test: Experimental autoimmune encephalomyelitis (EAE); type: in vivo
# Description: Induction of experimental autoimmune encephalomyelitis. Mice were immunized s.c. at one site in the flank with 200 μl of emulsion consisting of myelin oligodendrocyte glycoprotein (MOG) […] (300 μg per mouse) emulsified in CFA supplemented with 500 μg of Mycobacterium tuberculosis (Difco, Detroit, Mich.). Clinical symptoms of experimental autoimmune encephalomyelitis (EAE) were examined and scored daily, as follows: 0, no clinical disease; 0.5, piloerection; 1, tail weakness; 1.5, tail paralysis; 2, hindlimb weakness; 3, hindlimb paralysis; 3.5, forelimb weakness; 4, forelimb paralysis; 5, moribund state or death.
# [5] = tested on: retinal ganglion cells (RGCs); test: Experimental autoimmune uveitis (EAU), RGC survival; type: in vivo; details: R16-immunized Lewis rats, i.p. on days 3, 6, 9, 12 and 17; counted 3 weeks after immunization; mean±SD
# Description: Induction of experimental autoimmune uveitis. To induce experimental autoimmune uveitis (EAU), Lewis rats were immunized with R16 (30 μg), a peptide derived from an ocular antigen IRBP emulsified in CFA containing 2.5 mg/ml M. tuberculosis. A total volume of 100 μl was injected s.c. into each rat at the root of the tail. Rats were then divided into three groups. On days 3, 6, 9, 12 and 17 after immunization the rats in the first group were injected i.p. with CSPG-DS (15 μg/rat), and rats in the second group were injected i.p. with methylprednisolone (MP. 30 mg/kg; Solu-Medrol, 125 mg/ml, Pharmacia & Upjohn, Puurs, Belgium). Rats in third group were left untreated.
# [6] = tested on: NF-κB; test: Western blot of NF-κB in T-cell nuclear extracts; type: cell-based, human; details: T cells activated by anti-CD3 Ab
# Description: Western blot analysis of T-cell nuclear extracts. Purified T cells (5×10^6) were preincubated for 2 h with different concentrations of CSPG-DS. The cells were then replated at the same CSPG-DS concentration on 24-well plates pre-coated for 24 h with anti-CD3 mAb. The T cells were lysed in 10 mM HEPES, 1.5 mM MgCl2, 1 mM dithiothreitol, 1 mM PMSF, and 0.5% Nonidet P-40 (buffer A). The lysates were incubated on ice for 10 min and centrifuged at 2000 rpm for 10 min at 4° C. The supernatants (cytoplasmic extracts) were transferred and the pellets (nuclei) were suspended in buffer containing 30 mM HEPES, 450 mM NaCl, 25% glycerol, 0.5 mM EDTA, 6 mM dithiothreitol, 12 mM MgCl2 1 mM PMSF, 10 μg/ml leupeptin, 10 μg/ml pepstatin, and 1% phosphatase inhibitor cocktail (buffer B), and the suspension was incubated on ice for 30 min. The lysates were cleared by centrifugation (30 min, 14×10^3 rpm, 4° C.), and the resulting supernatants were analyzed for protein content. Sample buffer was added, the mixture was boiled, and the samples containing equal amounts of proteins were separated on 10% SDS-PAGE gel and transferred to nitrocellulose membranes. […]
# [7] = tested on: PC12 cells; test: PC12 cell viability after glutamate, XTT assay; type: cell-based, rat; details: disaccharides 1 to 50 μg/ml for 45 min, glutamate 10^−3 M 15 min, XTT after 24 h
# Description: PC12 cell line. Rat pheochromocytoma (PC12) cells were cultured in DMEM containing horse serum and FCS, both at 8% (culture medium) or at 1% (differentiation medium).
# Cell viability assay. PC12 cells were seeded on collagen-coated 96-well plates at a density of 10^4 cells per well (in differentiation medium containing 100 ng/ml NGF). The cells were incubated with CSPG-DS or other disaccharides at the indicated concentrations for 45 min, then washed with PBS and exposed to glutamate (10^−3 M) for 15 min. The glutamate solution was washed away and replaced with DMEM for a further 24 h of incubation. The number of viable cells was then determined with the XTT viability kit according to the manufacturer's instructions.
# [8] = PC12 cells with LPA plus CSPG-DSs
# [9] = MOG-immunized mice, 5 μg injections on days 0, 3, 5 and 7
smiles,measurement,setting,value
"CC(=O)N[C@H]1C(O)O[C@H](COS(=O)(=O)O)[C@H](O)[C@@H]1O[C@@H]1OC(C(=O)O)=C[C@H](O)[C@H]1O (stereo partly drawn) [CSPG-DS, 2-acetoamido-2-deoxy-3-O-(β-D-gluco-4-enepyranosyluronic acid)-6-O-sulfo-D-galactose]",LPA-induced neurite collapse / retraction,"[1]; NGF-differentiated PC12 cells, LPA 1 μg/ml 20 min together with CSPG-DSs (5 or 50 μg/ml)",dose-dependent reversal of the retraction process; also recorded: prevented
same,mean neurite length,[1]; [8],beneficial effect
same,number of neurite-bearing cells,[1]; [8],beneficial effect
same,mean neurite length,[2],107±7.8 μm
same,neuronal loss (propidium iodide staining),[3],significantly reduced
same,duration of the disease (EAE),[4]; [9],shortened
same,symptoms of the disease (EAE score),[4]; [9],significantly attenuated
same,EAE disease with less frequent injections,"[4]; injection on day 0 only, or days 0 and 7",alleviated the disease
same,RGC loss relative to normal rats,[5],24±9%
same,NF-κB levels in nuclei,[6],reduction
same,survival of PC12 cells exposed to glutamate,[7],protected PC12 cells from glutamate toxicity
